In publication PMC5513037, “Examining the influence of specificity ligands and ATP-competitive ligands on the overall effectiveness of bivalent kinase inhibitors” (Proteome Science, 2017):

Columns and labels:
Assay in all cases: biochemical
[1] = target: T1, SCYL1 (Homo sapiens, UniProt Q96KG9)
T1 sequence (Q96KG9 1-808): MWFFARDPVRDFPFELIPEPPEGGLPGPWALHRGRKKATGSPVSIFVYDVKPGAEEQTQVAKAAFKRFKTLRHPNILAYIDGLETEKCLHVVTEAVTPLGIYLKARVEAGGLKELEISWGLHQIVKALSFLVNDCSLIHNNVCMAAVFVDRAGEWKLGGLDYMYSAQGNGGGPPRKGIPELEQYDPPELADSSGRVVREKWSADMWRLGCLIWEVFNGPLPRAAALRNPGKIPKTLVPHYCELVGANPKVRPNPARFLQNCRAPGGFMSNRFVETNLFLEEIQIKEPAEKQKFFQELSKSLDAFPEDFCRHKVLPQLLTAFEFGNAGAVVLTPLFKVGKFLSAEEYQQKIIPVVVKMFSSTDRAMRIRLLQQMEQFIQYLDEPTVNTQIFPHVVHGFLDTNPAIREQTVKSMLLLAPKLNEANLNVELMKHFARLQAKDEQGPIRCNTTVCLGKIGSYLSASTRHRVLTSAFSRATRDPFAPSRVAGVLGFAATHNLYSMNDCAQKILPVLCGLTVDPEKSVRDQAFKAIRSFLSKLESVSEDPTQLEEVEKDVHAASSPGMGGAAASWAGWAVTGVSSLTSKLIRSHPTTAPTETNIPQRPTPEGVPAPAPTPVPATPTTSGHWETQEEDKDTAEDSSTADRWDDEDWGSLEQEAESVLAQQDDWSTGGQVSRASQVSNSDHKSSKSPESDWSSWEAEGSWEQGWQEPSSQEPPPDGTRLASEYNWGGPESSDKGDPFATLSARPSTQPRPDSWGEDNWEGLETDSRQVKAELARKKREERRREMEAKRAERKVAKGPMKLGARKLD
Excerpt: (§1) Data were visualized for further analysis using Spotfire DXP.

[2] = target: ATM (Homo sapiens, UniProt Q13315)
Sequence of ATM (Q13315 whole entry): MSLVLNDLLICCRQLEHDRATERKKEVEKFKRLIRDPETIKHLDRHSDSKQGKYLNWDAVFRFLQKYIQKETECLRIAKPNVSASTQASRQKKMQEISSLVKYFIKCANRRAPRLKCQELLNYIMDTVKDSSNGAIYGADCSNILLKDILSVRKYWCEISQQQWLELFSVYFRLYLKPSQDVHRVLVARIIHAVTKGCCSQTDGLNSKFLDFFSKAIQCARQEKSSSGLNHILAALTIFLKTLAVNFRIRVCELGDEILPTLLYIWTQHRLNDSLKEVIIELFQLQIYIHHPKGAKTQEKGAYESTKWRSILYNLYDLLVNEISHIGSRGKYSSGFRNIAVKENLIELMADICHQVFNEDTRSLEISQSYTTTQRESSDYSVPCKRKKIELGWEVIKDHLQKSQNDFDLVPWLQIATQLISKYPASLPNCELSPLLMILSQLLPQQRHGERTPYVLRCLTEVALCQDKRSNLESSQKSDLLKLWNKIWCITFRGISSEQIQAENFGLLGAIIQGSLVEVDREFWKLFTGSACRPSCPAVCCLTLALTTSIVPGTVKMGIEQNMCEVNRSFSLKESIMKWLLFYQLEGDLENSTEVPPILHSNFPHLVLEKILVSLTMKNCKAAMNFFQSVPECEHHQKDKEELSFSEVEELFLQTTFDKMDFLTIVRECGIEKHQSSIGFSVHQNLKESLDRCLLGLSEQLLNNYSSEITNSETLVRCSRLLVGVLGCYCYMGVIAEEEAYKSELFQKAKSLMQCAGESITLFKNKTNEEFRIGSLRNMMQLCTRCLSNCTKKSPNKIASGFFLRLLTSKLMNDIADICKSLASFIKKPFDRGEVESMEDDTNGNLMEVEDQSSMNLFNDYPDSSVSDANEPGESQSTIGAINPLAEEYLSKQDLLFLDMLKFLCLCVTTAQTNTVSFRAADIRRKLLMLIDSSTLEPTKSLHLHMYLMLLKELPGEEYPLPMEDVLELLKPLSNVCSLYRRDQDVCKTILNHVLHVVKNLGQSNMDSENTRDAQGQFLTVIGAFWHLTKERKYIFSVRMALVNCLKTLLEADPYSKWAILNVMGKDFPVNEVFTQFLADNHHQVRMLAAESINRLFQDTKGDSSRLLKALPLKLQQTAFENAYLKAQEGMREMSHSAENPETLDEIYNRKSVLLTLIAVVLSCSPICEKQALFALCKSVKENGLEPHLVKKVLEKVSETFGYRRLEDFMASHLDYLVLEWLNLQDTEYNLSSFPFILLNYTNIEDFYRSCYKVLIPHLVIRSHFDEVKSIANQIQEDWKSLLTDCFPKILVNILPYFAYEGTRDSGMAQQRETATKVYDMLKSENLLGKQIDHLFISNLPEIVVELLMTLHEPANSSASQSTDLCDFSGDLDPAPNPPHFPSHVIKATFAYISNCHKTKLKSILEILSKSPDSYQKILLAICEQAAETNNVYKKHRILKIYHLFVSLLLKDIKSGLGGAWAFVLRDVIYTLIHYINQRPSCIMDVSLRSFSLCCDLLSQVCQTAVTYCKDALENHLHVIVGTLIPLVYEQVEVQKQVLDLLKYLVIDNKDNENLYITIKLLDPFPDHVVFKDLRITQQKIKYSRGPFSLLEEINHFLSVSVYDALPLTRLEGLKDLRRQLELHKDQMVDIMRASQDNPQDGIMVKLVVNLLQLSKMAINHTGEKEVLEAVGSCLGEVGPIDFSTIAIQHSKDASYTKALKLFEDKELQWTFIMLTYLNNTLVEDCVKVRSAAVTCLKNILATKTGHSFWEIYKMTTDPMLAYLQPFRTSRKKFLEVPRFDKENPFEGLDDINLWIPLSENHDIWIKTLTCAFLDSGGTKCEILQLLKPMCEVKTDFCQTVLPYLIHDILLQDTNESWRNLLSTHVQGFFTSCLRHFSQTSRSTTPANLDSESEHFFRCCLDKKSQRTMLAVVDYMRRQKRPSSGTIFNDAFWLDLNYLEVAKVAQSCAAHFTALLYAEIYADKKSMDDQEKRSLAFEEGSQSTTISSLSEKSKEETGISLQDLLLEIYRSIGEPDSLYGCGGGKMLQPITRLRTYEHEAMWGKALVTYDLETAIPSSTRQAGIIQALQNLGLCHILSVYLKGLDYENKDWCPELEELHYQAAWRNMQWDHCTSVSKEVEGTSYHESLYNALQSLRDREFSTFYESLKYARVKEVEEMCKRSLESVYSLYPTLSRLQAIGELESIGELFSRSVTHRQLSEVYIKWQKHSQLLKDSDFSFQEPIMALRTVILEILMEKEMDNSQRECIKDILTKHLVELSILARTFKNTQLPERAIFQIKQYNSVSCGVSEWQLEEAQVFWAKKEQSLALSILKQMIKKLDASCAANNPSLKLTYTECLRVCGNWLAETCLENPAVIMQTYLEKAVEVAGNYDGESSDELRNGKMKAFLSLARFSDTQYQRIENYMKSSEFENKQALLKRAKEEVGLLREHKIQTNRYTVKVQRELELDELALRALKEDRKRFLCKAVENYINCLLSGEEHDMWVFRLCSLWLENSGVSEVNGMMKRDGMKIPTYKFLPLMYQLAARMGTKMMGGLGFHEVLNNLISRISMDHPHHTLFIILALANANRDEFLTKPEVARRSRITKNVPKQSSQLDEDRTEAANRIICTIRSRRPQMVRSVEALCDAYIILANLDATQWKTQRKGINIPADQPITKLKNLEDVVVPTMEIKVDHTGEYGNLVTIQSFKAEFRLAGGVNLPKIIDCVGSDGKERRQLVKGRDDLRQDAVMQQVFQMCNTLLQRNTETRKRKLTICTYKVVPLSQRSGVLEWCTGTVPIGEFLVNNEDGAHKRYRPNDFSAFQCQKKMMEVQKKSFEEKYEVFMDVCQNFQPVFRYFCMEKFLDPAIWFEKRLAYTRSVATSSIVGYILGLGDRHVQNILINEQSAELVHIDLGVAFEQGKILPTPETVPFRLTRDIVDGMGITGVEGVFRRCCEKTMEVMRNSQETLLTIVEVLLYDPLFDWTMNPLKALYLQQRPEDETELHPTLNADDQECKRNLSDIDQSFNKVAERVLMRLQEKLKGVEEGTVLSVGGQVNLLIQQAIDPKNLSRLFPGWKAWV
Excerpt: as §1

[3] = target: PSKH2 (Homo sapiens, UniProt Q96QS6)
Sequence of PSKH2 (Q96QS6 whole entry): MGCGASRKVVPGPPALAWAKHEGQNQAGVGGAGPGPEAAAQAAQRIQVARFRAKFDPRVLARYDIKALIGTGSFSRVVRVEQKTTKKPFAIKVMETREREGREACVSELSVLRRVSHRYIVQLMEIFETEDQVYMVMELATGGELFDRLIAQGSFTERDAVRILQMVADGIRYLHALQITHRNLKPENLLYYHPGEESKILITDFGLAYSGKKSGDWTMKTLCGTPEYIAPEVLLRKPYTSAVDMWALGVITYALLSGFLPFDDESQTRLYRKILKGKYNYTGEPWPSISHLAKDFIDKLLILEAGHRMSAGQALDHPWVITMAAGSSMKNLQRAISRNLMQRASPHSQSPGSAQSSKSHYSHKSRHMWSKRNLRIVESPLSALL
Excerpt: as §1

Measured: IC50

Cc1ccc(NC(=O)c2ccc(CN3CCN(C)CC3)cc2)cc1Nc1nccc(-c2cccnc2)n1 [Imatinib]
> 10 µM: all assays above
